Laboratory results taken from US5204343A, “5H-benzodiazepin derivative” (Egis Gyogyszergyar, priority 1990, dated 1993).
“Also recorded” adds a separate entry of the source.

Key:
Acute toxicity, mouse = experiment: Acute toxicity, mouse; design: species or system mouse (male, CFLP strain); conditions: in vivo, 14 days observation
Protocol: (§1) The experiments were carried out on male mice belonging to the CFLP strain (body weight: 20-22 g) and on male rats belonging to the CFY strain. […] The LD50 values were determined with the aid of the method of Lichtfield and Wilcoxon [J. Pharmacol. Exp. Ther. 96, 99 (1949)]. The compounds were suspended in 2 to 5% Tween 80. The animals were treated in volumes of 0.1 ml/10 g (mice) and 0.5 ml/100 g (rats).

[1] = Anxiolytic, antiaggressive and antidepressant effects, overall statement; format: in vivo; conditions: vs girisopam
rats = experiment: Anxiolytic effect on rats ("lick-conflict" test of Vogel); format: in vivo; conditions: for Numbers of shocks tolerated: 50 mg/kg i.p., pretreatment 30 minutes, vehicle 5.7 ± 0.6 (formula (I) series), 5.1 ± 0.9 (girisopam series); for number of tolerated shocks, result in words: same dose (50 mg/kg i.p.)
Protocol: The anxiolytic effect was investigated according to the so-called "lick-conflict" test of Vogel [Psychopharmacol. 21, 1 (1971)]. Time of pretreatment: 30 minutes.

mice [2] = experiment: Behaviour test on mice (method of Irwin); format: in vivo
Text: The effects of the compound of formula (I) and the reference compound (girisopam) were examined by the method of Irwin [Psychopharmacol. 13, 222 (1968)].

mice [3] = experiment: Narcosis potentiating effect on mice (hexobarbital-Na); format: in vivo; conditions: for Prolongation of narcosis time: hexobarbital-Na 50 mg/kg i.v.
Protocol: The prolongation of the narcosis time was related to the sleeping time of the control group treated with a 50 mg/kg i.v. dose of hexobarbital-Na. The test compound was administered […].

[4] = Pharmacological experiments, overall (spectrum, potency, therapeutical index); format: in vivo; conditions: vs girisopam
[5] = Muscle relaxant and anticonvulsive effects; conditions: in vivo
[6] = Acute toxicity, overall statement; format: in vivo; conditions: vs girisopam
Protocol: as §1

Acute toxicity, rat = experiment: Acute toxicity, rat; design: species or system rat (male, CFY strain); conditions: in vivo, ip, 14 days observation
Protocol: as §1

mice [7] = experiment: Antiaggressive effect on mice ("fighting behaviour" test of Tedeschi et al.); format: in vivo; conditions: Mus musculus, confidence limit in separate column
Text: The antiaggressive effect was examined by the method of Tedeschi et al. (the so-called "fighting behaviour" test) [J. Pharm. Exp. Ther. 25, 28 (1959)].

[8] = vs Grandaxin (tofisopam); cited from earlier work

COc1cc2c(cc1OC)C(c1cccc(Cl)c1)=NN=C(CO)C2 [Compound of formula (I), 1-(3-chlorophenyl)-4-hydroxymethyl-7,8-dimethoxy-5H-2,3-benzodiazepine]
LD50 at 336 h (Acute toxicity, mouse; ip): 1310 mg/kg | LD50 at 336 h (Acute toxicity, mouse; po): > 2000 mg/kg | anxiolytic, antiaggressive and antidepressant effects [1]: as strong anxiolytic, antiaggressive and antidepressant effects as girisopam | Numbers of shocks tolerated (rats): 13.8 ± 3.7 | number of tolerated shocks, result in words (rats): significant increase on the number of tolerated shocks | spontaneous motor activity (SMA) after 60 minutes (mice [2]; 100 mg/kg i.p.): SMA.dwnarw. | spontaneous motor activity (SMA) after 120 minutes (mice [2]; 100 mg/kg i.p.): SMA.dwnarw. | spontaneous motor activity (SMA) after 180 minutes (mice [2]; 100 mg/kg i.p.): SMA.dwnarw. | spontaneous motor activity (SMA) after 60 minutes (mice [2]; 200 mg/kg p.o.): SMA.dwnarw. | spontaneous motor activity (SMA) after 120 minutes (mice [2]; 200 mg/kg p.o.): SMA.dwnarw. | spontaneous motor activity (SMA) after 180 minutes (mice [2]; 200 mg/kg p.o.): SMA.dwnarw. | decrease of spontaneous motor activity, compared with reference compound (mice [2]; mice, vs girisopam): decreases the spontaneous motor activity on mice to the same degree as the reference compound | Prolongation of narcosis time (mice [3]; 12.5 mg/kg p.o.): 145% | Prolongation of narcosis time (mice [3]; 25 mg/kg p.o.): 232% | Prolongation of narcosis time (mice [3]; 50 mg/kg p.o.): 444% | narcosis potentiating activity compared with reference compound (mice [3]; p.o. doses 25 mg/kg and 50 mg/kg, vs girisopam): practically as significant as that of the reference compound (girisopam) or even superior | spectrum of activity and potency [4]: as favourable as those of the reference compound (girisopam) | therapeutical index compared with reference compound [4]: more favourable than the reference compound | muscle relaxant and anticonvulsive effects [5]: do not show muscle relaxant and anticonvulsive effects | acute toxicity compared with reference compound [6]: considerably more favourable on both kinds of animals than that of the reference compound; also recorded: their acute toxicity is superior | LD50 at 336 h (Acute toxicity, rat): > 1500 mg/kg | ED50 (mice [7]): 13.8 mg/kg

COc1cc2c(cc1OC)C(c1cccc(Cl)c1)=NN=C(C)C2 [Girisopam, 1-(3-chlorophenyl)-4-methyl-7,8-dimethoxy-5H-2,3-benzodiazepine, reference compound]
LD50 at 336 h (Acute toxicity, mouse; ip): 330 mg/kg | LD50 at 336 h (Acute toxicity, mouse; po): 1250 mg/kg | Numbers of shocks tolerated (rats): 19.0 ± 2.3 | number of tolerated shocks, result in words (rats): significant increase on the number of tolerated shocks | effectiveness compared with Grandaxin [8]: five times more effective than the latter | spontaneous motor activity (SMA) after 60 minutes (mice [2]; 100 mg/kg i.p.): SMA.dwnarw. | spontaneous motor activity (SMA) after 120 minutes (mice [2]; 100 mg/kg i.p.): SMA.dwnarw. | spontaneous motor activity (SMA) after 180 minutes (mice [2]; 100 mg/kg i.p.): SMA.dwnarw. | spontaneous motor activity (SMA) after 60 minutes (mice [2]; 200 mg/kg p.o.): SMA.dwnarw. | spontaneous motor activity (SMA) after 120 minutes (mice [2]; 200 mg/kg p.o.): SMA.dwnarw. | spontaneous motor activity (SMA) after 180 minutes (mice [2]; 200 mg/kg p.o.): SMA.dwnarw. | Prolongation of narcosis time (mice [3]; 25 mg/kg p.o.): 305% | Prolongation of narcosis time (mice [3]; 50 mg/kg p.o.): 392% | LD50 at 336 h (Acute toxicity, rat): 670 mg/kg | ED50 (mice [7]): 16 mg/kg
